Here are results for one molecule from publication PMC6812191 (Heliyon, 2019).

The term inhibition denotes how much of the control response was suppressed. Broadly, the IC50 is the concentration at which inhibition is half-maximal. High values mean lower potency, low ones higher potency.

Assay type in all cases: cell-based
For data set [1], the target named is hERG potassium channel (Homo sapiens, UniProt Q12809, F656A). The experiment in a line: whole-cell patch clamp, inhibition at […]. A general note: Patch clamp records ionic current or voltage across a cell membrane.
The target of data set [2] is hERG potassium channel (Homo sapiens, UniProt Q12809, S624A). Put plainly: whole-cell patch clamp, concentration response.
Data set [3] concerns the target hERG potassium channel (Homo sapiens, UniProt Q12809, V625A). Put plainly: whole-cell patch clamp, inhibition at […].
In data set [4] the target is hERG potassium channel (Homo sapiens, UniProt Q12809, Y652A). The experiment in a line: whole-cell patch clamp, inhibition at […].
For data set [5], the target named is hERG potassium channel (Homo sapiens, UniProt Q12809). The experiment in a line: whole-cell patch clamp, tail current inhibition.
The target of data set [6] is hERG potassium channel (Homo sapiens, UniProt Q12809, T623A). The experiment in a line: whole-cell patch clamp, inhibition at […].

hERG potassium channel (Homo sapiens, UniProt Q12809, S624A), sequence (Q12809 whole entry S624A): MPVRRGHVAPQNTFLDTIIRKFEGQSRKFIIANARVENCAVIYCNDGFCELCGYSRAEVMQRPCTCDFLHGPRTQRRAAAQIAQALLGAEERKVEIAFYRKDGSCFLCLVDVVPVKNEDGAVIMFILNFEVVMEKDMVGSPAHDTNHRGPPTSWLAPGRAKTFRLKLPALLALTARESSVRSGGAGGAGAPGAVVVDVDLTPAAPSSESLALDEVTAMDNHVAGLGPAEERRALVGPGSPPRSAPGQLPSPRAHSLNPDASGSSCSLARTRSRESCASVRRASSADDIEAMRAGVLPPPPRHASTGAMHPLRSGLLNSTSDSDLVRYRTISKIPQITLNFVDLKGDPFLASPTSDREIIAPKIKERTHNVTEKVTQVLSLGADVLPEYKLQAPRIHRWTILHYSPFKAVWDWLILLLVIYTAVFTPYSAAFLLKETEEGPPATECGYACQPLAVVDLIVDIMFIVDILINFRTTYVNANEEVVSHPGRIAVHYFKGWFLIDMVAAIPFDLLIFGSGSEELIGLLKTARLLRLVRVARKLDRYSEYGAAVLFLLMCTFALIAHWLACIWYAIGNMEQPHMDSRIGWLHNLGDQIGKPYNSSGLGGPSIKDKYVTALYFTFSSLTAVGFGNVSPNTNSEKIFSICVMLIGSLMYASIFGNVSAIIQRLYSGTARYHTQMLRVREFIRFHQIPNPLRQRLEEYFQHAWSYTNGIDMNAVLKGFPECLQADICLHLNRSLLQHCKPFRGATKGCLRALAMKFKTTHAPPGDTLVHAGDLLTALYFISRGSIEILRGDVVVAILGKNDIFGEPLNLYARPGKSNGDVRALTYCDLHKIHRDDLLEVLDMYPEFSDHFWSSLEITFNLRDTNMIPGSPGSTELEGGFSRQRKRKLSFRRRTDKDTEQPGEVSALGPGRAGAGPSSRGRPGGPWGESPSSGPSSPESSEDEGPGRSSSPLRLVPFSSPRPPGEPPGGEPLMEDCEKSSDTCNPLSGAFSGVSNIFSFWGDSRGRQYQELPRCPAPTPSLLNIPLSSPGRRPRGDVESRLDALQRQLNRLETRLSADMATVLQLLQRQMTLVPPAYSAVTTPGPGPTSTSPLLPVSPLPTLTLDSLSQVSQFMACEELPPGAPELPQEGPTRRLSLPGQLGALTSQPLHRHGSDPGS
hERG potassium channel (Homo sapiens, UniProt Q12809, F656A), sequence (Q12809 whole entry F656A): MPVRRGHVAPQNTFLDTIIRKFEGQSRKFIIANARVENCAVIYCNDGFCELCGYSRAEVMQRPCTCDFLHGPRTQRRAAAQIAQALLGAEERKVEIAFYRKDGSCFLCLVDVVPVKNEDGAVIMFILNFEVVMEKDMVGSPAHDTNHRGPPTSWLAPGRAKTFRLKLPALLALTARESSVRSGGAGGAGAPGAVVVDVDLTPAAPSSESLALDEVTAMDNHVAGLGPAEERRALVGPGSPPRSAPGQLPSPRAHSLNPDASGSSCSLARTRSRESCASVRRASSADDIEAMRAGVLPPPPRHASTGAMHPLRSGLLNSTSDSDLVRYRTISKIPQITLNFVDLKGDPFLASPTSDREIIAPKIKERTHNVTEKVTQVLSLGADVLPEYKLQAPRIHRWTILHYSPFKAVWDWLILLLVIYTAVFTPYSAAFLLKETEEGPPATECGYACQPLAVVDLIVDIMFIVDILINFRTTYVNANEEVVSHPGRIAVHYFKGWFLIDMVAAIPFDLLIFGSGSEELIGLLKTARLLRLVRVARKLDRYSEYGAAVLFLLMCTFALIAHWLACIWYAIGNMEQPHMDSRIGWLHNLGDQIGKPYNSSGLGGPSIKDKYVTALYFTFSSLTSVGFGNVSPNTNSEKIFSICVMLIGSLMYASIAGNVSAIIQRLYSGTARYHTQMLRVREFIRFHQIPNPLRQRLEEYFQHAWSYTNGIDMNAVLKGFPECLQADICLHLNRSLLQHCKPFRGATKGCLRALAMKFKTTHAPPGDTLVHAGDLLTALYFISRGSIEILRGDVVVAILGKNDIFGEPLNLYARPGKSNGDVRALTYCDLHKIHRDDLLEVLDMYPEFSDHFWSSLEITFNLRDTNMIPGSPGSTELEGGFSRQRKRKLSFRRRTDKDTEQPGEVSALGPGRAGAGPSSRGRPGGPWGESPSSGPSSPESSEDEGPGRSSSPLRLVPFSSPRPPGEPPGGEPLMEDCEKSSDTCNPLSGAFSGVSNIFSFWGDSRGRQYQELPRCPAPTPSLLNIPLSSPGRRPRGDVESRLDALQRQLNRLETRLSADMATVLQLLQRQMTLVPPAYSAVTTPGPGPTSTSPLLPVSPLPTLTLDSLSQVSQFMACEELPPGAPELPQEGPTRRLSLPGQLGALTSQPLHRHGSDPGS
hERG potassium channel (Homo sapiens, UniProt Q12809, V625A), sequence (Q12809 whole entry V625A): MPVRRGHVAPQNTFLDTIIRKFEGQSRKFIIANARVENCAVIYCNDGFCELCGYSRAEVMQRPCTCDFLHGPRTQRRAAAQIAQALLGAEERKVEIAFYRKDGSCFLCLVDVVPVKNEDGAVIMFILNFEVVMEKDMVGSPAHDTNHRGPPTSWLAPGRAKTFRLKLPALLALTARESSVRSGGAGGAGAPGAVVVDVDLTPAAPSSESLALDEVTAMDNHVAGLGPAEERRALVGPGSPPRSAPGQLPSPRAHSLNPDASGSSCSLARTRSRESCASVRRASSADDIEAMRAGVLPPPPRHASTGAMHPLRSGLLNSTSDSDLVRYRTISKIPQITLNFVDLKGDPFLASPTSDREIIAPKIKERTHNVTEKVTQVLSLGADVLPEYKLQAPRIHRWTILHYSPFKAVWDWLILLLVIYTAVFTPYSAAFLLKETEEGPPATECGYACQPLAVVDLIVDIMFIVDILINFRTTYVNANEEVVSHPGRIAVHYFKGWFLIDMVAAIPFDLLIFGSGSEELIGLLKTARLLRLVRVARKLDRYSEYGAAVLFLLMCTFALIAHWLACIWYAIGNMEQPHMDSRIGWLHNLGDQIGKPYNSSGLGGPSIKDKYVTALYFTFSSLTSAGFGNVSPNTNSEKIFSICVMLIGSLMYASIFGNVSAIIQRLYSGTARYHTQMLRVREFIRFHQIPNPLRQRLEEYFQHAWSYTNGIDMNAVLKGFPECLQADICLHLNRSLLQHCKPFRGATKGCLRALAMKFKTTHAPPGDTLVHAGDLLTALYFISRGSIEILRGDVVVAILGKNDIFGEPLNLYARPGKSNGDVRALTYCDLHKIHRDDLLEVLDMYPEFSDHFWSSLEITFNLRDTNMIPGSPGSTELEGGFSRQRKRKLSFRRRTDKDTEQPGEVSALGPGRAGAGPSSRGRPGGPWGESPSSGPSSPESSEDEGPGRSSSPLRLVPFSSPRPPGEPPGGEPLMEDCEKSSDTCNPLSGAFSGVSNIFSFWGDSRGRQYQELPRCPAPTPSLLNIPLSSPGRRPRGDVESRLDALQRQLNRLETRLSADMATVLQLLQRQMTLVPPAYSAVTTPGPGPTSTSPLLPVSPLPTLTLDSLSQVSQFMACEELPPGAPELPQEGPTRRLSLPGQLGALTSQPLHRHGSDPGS
hERG potassium channel (Homo sapiens, UniProt Q12809), sequence (Q12809 whole entry): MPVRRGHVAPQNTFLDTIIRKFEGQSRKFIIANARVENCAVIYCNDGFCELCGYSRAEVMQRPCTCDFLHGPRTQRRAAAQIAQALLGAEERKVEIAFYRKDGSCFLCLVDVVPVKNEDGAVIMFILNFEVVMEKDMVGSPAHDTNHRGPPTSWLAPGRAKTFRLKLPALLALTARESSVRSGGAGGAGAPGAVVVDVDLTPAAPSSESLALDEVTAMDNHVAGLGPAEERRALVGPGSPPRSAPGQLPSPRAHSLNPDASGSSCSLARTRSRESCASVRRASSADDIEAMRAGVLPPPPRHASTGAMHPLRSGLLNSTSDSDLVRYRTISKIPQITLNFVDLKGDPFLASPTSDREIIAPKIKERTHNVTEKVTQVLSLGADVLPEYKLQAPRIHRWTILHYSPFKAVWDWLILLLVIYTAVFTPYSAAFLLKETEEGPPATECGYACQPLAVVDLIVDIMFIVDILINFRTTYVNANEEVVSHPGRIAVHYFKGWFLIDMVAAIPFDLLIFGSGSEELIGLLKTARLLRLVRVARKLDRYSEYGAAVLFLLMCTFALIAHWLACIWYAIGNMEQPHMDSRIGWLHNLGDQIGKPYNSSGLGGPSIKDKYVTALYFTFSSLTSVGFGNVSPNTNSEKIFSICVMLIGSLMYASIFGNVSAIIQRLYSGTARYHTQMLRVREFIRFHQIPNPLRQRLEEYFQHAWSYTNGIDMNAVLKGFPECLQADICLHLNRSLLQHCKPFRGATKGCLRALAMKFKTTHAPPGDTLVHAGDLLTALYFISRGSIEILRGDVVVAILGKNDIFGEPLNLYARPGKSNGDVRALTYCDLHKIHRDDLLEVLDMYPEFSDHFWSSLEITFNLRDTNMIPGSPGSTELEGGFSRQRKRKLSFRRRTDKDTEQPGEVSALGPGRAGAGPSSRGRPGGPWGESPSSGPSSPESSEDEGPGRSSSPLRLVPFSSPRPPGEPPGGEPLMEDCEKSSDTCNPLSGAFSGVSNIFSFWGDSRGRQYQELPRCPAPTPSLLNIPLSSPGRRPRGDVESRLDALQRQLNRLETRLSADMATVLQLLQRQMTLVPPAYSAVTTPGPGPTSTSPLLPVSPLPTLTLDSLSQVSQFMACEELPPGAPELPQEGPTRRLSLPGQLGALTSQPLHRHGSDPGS

`CC1=C(O)C(=O)C=C2C1=CC=C1[C@@]2(C)CC[C@@]2(C)[C@@H]3C[C@](C)(C(=O)O)CC[C@]3(C)CC[C@]12C` [Celastrol]: the inhibition at 1 µM turned out to be 34.5 ± 1.5% against hERG potassium channel [1], 51.6 ± 4.3% at hERG potassium channel [3], 56.3 ± 1.6% at hERG potassium channel [4] and 36.2 ± 0.4% against hERG potassium channel [6]. The IC50 on hERG potassium channel [2] was 4 ± 0.3 µM; against hERG potassium channel [5], 0.83 µM.
